According to patent US11186592B2, “Thiazolopyridine derivatives as adenosine receptor antagonists” (MERCK PATENT GMBH, priority 2017, dated 2021):

What was measured:
[1] = Pharmacokinetic properties in mouse after single intravenous and oral administration; conditions: for half-life / Cmax / clearance / Vd: female, iv, 0.2 mg/kg; for clearance: CL; for clearance / Vd: iv administration; for Vd: Vss
Description: Female Wistar rats/mice (n=6) received either a single intravenous (bolus) injection or an oral administration (by gavage) of the tested compound.
The concentrations of the compounds in plasma, feces were quantified using an UPLC method with tandem mass spectrometric detection (LC-MS/MS) previously developed at the ‘Institute of Drug Metabolism and Pharmacokinetics’. […] The detection of the compounds was performed using multiple reaction monitoring in the positive ionization mode. Plasma samples were spiked with internal standard (20 μl) and the analyte was extracted from the matrix using tertiary-butyl methyl ether (tBME). The organic phase was evaporated to dryness under a stream of nitrogen. The residue was dissolved in acetonitrile/0.1% formic acid for LC-MS/MS analysis. Feces samples were homogenized with 4-times their volume of an ethanol/water mixture (4:1, v/v). Aliquots of the aqueous-ethanolic extracts were spiked with internal standard, diluted with acetonitrile/water (1:1, v/v) and directly injected into the LC-MS/MS system.
Pharmacokinetic parameters Cmax and tmax were taken from the observed data. […] AUC values were calculated by non-compartmental analysis using the linear up/log down method. Numerical data for mean plasma concentrations and derived pharmacokinetic parameters were rounded to 3 significant digits for presentation.

human A2B receptor = biological target: T1, human A2B receptor (Homo sapiens, UniProt P29275); test: cAMP (HTRF) functional assay, recombinant HEK293 cells expressing human A2B receptor, agonist NECA; assay type: cell-based
T1 construct: expressed in transfected cells; host or cells: HEK293
T1 sequence (P29275 1-332): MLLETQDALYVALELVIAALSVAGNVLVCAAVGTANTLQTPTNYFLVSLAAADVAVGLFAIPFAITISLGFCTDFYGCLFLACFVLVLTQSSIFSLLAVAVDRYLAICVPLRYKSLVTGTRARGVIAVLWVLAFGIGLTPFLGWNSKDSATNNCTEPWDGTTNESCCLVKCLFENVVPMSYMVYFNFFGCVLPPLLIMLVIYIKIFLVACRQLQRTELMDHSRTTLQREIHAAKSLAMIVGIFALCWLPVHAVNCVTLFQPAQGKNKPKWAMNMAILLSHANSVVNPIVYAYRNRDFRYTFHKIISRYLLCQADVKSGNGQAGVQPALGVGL
Procedure, shortened: (§1)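 Cellular cAMP measured by HTRF after 30 min incubation of cells with forskolin, test compounds and agonist. Data normalized to inhibitor control and DMSO neutral control, then curve-fitted.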

human A1 receptor = biological target: T2, human A1 receptor (Homo sapiens, UniProt P30542); test: cAMP (HTRF) functional assay, recombinant CHO cells expressing human A1 receptor, forskolin + agonist CPA; assay type: cell-based
T2 construct: expressed in transfected cells; host or cells: CHO
T2 sequence (P30542 1-326): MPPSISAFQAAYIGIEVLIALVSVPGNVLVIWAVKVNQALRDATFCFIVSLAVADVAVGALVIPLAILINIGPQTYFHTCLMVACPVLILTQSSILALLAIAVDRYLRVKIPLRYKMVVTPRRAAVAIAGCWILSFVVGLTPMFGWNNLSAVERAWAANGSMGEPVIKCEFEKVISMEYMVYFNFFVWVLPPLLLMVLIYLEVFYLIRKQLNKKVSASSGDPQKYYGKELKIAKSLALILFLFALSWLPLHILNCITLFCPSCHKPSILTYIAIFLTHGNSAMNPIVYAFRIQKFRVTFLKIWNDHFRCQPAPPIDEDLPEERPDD
Procedure, shortened: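 Recombinant CHO cells expressing A1 or A3 receptor (Gi-coupled) were stimulated with forskolin together with test compound and agonist (CPA for A1, IB-MECA for A3), incubated 30 min, then cellular cAMP was read by HTRF. Data were normalized to inhibitor control and DMSO neutral control, then curve-fitted.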

human A2A receptor = biological target: T3, human A2A receptor (Homo sapiens, UniProt P29274); test: cAMP (HTRF) functional assay, recombinant HEK293 cells expressing human A2A receptor, agonist NECA; assay type: cell-based
T3 construct: expressed in transfected cells; host or cells: HEK293
T3 sequence (P29274 whole entry): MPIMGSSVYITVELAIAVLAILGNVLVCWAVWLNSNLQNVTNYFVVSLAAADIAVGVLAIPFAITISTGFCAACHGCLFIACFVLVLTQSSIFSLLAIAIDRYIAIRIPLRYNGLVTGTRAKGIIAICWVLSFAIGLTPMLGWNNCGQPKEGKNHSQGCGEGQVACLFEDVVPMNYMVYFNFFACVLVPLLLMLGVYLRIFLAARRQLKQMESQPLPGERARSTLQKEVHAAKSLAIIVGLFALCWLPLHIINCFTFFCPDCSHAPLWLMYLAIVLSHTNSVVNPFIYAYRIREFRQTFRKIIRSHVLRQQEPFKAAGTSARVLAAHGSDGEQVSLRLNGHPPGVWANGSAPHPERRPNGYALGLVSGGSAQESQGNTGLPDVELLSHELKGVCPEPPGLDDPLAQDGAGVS
Procedure, shortened: as §1

human A3 receptor = biological target: T4, human A3 receptor (Homo sapiens, UniProt P0DMS8); test: cAMP (HTRF) functional assay, recombinant CHO cells expressing human A3 receptor, forskolin + agonist IB-MECA; assay type: cell-based
T4 construct: expressed in transfected cells; host or cells: CHO
T4 sequence (P0DMS8 1-318): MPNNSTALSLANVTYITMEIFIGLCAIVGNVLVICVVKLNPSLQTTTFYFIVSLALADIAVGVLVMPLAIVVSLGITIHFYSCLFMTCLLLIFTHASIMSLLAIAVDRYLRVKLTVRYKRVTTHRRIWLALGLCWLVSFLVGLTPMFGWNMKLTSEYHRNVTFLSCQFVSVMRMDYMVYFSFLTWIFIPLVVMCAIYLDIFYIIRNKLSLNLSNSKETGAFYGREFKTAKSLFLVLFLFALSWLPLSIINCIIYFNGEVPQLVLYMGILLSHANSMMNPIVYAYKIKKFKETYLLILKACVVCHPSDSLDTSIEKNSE
Description: The functional activities of human A2A, A2B, A1 and A3 receptors were determined by quantification of cAMP, being the second messenger for adenosine receptors.
For human A1 and A3 receptors, recombinant CHO cells, expressing either A1 or A3-receptor, were used. As both receptors couple to Gi proteins, the assay protocol was adapted:
Cells were seeded into 384-well plates, forskolin, test compounds and agonists (CPA for A1- and IB-MECA for A3-receptor) were added. After 30 min incubation, HTRF reagents (cAMP dynamic 2, Cis Bio) were added and the cellular cAMP levels were determined using the ENVISION (Perkin Elmer) plate reader. Obtained raw data were normalized against the inhibitor control and the neural control (DMSO) and the normalized data were fitted using GeneData software.

## COCCn1cc(C(=O)Nc2nc3c(OC)ccc(N4CCOCC4)c3s2)cn1 [Benzothiazole analogue to No. 4, reference compound]
[1]; % of dose in feces after iv, @0.2 (iv dose 0.2 mg/kg)
  Feces iv: 2.6@0.2%
[1]; in vivo
  half-life: 19.9 min
[1]; plasma
  Cmax: 940 ng/mL
  clearance: 36.3 mL/min/kg
  Vd: 0.946 L/kg

## COc1ncc(N2CCOCC2)c2sc(NC(=O)N3CCC(C)(O)CC3)nc12 [compound 1, 4-Hydroxy-4-methyl-piperidine-1-carboxylic acid (4-methoxy-7-morpholin-4-yl-thiazolo[4,5-c]pyridin-2-yl)-amide]
[1]; in vivo
  Cmax: 449 ng/mL
  half-life: 10.3 min
[1]; plasma
  clearance: 114 mL/min/kg
  Vd: 1.45 L/kg

## COc1ncc(-c2ccccc2F)c2sc(NC(=O)N3CCC4(CCOCC4)C3)nc12 [compound 195, 8-Oxa-2-aza-spiro[4.5]decane-2-carboxylic acid [7-(2-fluoro-phenyl)-4-methoxy-thiazolo[4,5-c]pyridin-2-yl]-amide]
Human A2B receptor
  IC50: < 100 nM
Human A1 receptor
  IC50: > 1000 nM
Human A2A receptor
  IC50: < 10 nM
Human A3 receptor
  IC50: > 1000 nM

## COc1ncc(-c2ccccc2)c2sc(NC(=O)C3(N)CC3)nc12 [compound 203, 1-Amino-cyclopropanecarboxylic acid (4-methoxy-7-phenyl-thiazolo[4,5-c]pyridin-2-yl)-amide]
Human A2B receptor
  IC50: < 100 nM
Human A1 receptor
  IC50: < 1000 nM
Human A2A receptor
  IC50: < 10 nM
Human A3 receptor
  IC50: < 1000 nM

## COc1ncc(-c2ccccc2)c2sc(NC(=O)N3CC[C@@]4(CCCOC4)C3)nc12 [compound 204, (S)-7-Oxa-2-aza-spiro[4.5]decane-2-carboxylic acid (4-methoxy-7-phenyl-thiazolo[4,5-c]pyridin-2-yl)-amide]
Human A2B receptor
  IC50: < 100 nM
Human A1 receptor
  IC50: < 1000 nM
Human A2A receptor
  IC50: < 10 nM
Human A3 receptor
  IC50: > 1000 nM

## COc1ncc(-c2ccccc2)c2sc(NC(=O)N3CC[C@]4(CCCOC4)C3)nc12 [compound 205, (R)-7-Oxa-2-aza-spiro[4.5]decane-2-carboxylic acid (4-methoxy-7-phenyl-thiazolo[4,5-c]pyridin-2-yl)-amide]
Human A2B receptor
  IC50: < 100 nM
Human A1 receptor
  IC50: > 1000 nM
Human A2A receptor
  IC50: < 10 nM
Human A3 receptor
  IC50: > 1000 nM

## COc1ncc(-c2ccccc2)c2sc(NC(=O)N3CC[C@]4(CCOC4)C3)nc12 [compound 207, (S)-2-Oxa-7-aza-spiro[4.4]nonane-7-carboxylic acid (4-methoxy-7-phenyl-thiazolo[4,5-c]pyridin-2-yl)-amide]
Human A2B receptor
  IC50: < 100 nM
Human A1 receptor
  IC50: < 1000 nM
Human A2A receptor
  IC50: < 10 nM
Human A3 receptor
  IC50: > 1000 nM

## COc1ncc(-c2ccccc2)c2sc(NC(=O)N3CC[C@@]4(CCOC4)C3)nc12 [compound 208, (R)-2-Oxa-7-aza-spiro[4.4]nonane-7-carboxylic acid (4-methoxy-7-phenyl-thiazolo[4,5-c]pyridin-2-yl)-amide]
Human A2B receptor
  IC50: < 100 nM
Human A1 receptor
  IC50: > 1000 nM
Human A2A receptor
  IC50: < 10 nM
Human A3 receptor
  IC50: > 1000 nM

## COc1ncc(-c2cccc(F)c2F)c2sc(NC(=O)N3CCC4(CCOCC4)C3)nc12 [compound 209, 8-Oxa-2-aza-spiro[4.5]decane-2-carboxylic acid [7-(2,3-difluoro-phenyl)-4-methoxy-thiazolo[4,5-c]pyridin-2-yl]-amide]
Human A2B receptor
  IC50: < 100 nM
Human A1 receptor
  IC50: > 1000 nM
Human A2A receptor
  IC50: < 10 nM
Human A3 receptor
  IC50: > 1000 nM

## COc1ncc(-c2cc(F)ccc2F)c2sc(NC(=O)N3CCC4(CCOCC4)C3)nc12 [compound 210, 8-Oxa-2-aza-spiro[4.5]decane-2-carboxylic acid [7-(2,5-difluoro-phenyl)-4-methoxy-thiazolo[4,5-c]pyridin-2-yl]-amide]
Human A2B receptor
  IC50: < 100 nM
Human A1 receptor
  IC50: > 1000 nM
Human A2A receptor
  IC50: < 10 nM
Human A3 receptor
  IC50: > 1000 nM

## COc1ncc(-c2ccccc2)c2sc(NC(=O)c3ccc(N4C(=O)CCC4=O)cc3)nc12 [compound 213, 4-(2,5-Dioxo-pyrrolidin-1-yl)-N-(4-methoxy-7-phenyl-thiazolo[4,5-c]pyridin-2-yl)-benzamide]
Human A2B receptor
  IC50: < 100 nM
Human A1 receptor
  IC50: < 1000 nM
Human A2A receptor
  IC50: < 10 nM
Human A3 receptor
  IC50: > 1000 nM

## COc1nc(Cl)c(-c2ccccc2)c2sc(NC(=O)N3CCC4(CCOCC4)C3)nc12 [compound 220, 8-Oxa-2-aza-spiro[4.5]decane-2-carboxylic acid (6-chloro-4-methoxy-7-phenyl-thiazolo[4,5-c]pyridin-2-yl)-amide]
Human A2B receptor
  IC50: < 100 nM
Human A1 receptor
  IC50: > 1000 nM
Human A2A receptor
  IC50: < 10 nM
Human A3 receptor
  IC50: > 1000 nM

## COCCOc1cccc(-c2cnc(OC)c3nc(NC(=O)c4cnn(CCOC)c4)sc23)c1 [compound 233, N-{4-methoxy-7-[3-(2-methoxyethoxy)phenylH]-[1,3]thiazolo[4,5-c]pyridin-2-yl}-1-(2-methoxyethyl)-1H-pyrazole-4-carboxamide]
Human A2B receptor
  IC50: < 10 nM
Human A1 receptor
  IC50: < 1000 nM
Human A2A receptor
  IC50: < 10 nM
Human A3 receptor
  IC50: < 1000 nM

## COCCOc1cccc(-c2c(F)nc(OC)c3nc(NC(=O)N4CCC5(CCOCC5)C4)sc23)c1 [compound 234, N-{6-fluoro-4-methoxy-7-[3-(2-methoxyethoxy)phenyl]-[1,3]thiazolo[4,5-c]pyridin-2-yl}-8-oxa-2-azaspiro[4.5]decane-2-carboxamide]
Human A2B receptor
  IC50: < 10 nM
Human A1 receptor
  IC50: < 100 nM
Human A2A receptor
  IC50: < 10 nM
Human A3 receptor
  IC50: < 100 nM

## COc1ncc(C2CCOCC2)c2sc(NC(=O)c3cnn(C)c3)nc12 [compound 235, N-[4-methoxy-7-(oxan-4-yl)-[1,3]thiazolo[4,5-c]pyridin-2-yl]-1-methyl-1H-pyrazole-4-carboxamide]
Human A2B receptor
  IC50: < 10 nM
Human A1 receptor
  IC50: < 100 nM
Human A2A receptor
  IC50: < 10 nM
Human A3 receptor
  IC50: < 1000 nM

## COc1ccccc1-c1cnc(OC)c2nc(NC(=O)N3CCC4(CCOCC4)C3)sc12 [compound 236, N-[4-methoxy-7-(2-methoxyphenyl)-[1,3]thiazolo[4,5-c]pyridin-2-yl]-8-oxa-2-azaspiro[4.5]decane-2-carboxamide]
Human A2B receptor
  IC50: < 100 nM
Human A1 receptor
  IC50: > 1000 nM
Human A2A receptor
  IC50: < 100 nM
Human A3 receptor
  IC50: > 1000 nM

## COc1ncc(C2=CCOCC2)c2sc(NC(=O)c3cnn(C)c3)nc12 [compound 238, N-[7-(3,6-dihydro-2H-pyran-4-yl)-4-methoxy-[1,3]thiazolo[4,5-c]pyridin-2-yl]-1-methyl-1H-pyrazole-4-carboxamide]
Human A2B receptor
  IC50: < 10 nM
Human A1 receptor
  IC50: < 10 nM
Human A2A receptor
  IC50: < 10 nM
Human A3 receptor
  IC50: < 1000 nM

## COc1ccc(-c2cnc(OC)c3nc(NC(=O)N4CCC5(CCOCC5)C4)sc23)c(OC)n1 [compound 239, N-[7-(2,6-dimethoxypyridin-3-yl)-4-methoxy-[1,3]thiazolo[4,5-c]pyridin-2-yl]-8-oxa-2-azaspiro[4.5]decane-2-carboxamide]
Human A2B receptor
  IC50: > 1000 nM
Human A1 receptor
  IC50: > 1000 nM
Human A2A receptor
  IC50: < 100 nM
Human A3 receptor
  IC50: > 1000 nM

## COc1ncc(C2CCOCC2)c2sc(NC(=O)c3cnc(N)s3)nc12 [compound 241, 2-amino-N-[4-methoxy-7-(oxan-4-yl)-[1,3]thiazolo[4,5-c]pyridin-2-yl]-1,3-thiazole-5-carboxamide]
Human A2B receptor
  IC50: < 10 nM
Human A1 receptor
  IC50: < 1000 nM
Human A2A receptor
  IC50: < 10 nM
Human A3 receptor
  IC50: < 1000 nM
